From patent US12077503B2, “Substituted cyclic amides and their use as herbicides” (FMC CORPORATION, priority 2015, dated 2024)

Key:
Assay in all cases: Test C preemergence
Type in all cases: in vivo
Details in all cases: scale 0 to 100, 0 no effect, 100 complete control
[1] = system: morningglory (Ipomoea coccinea)
Method in brief: (§1)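 Greenhouse test: seeds in a loam and sand blend treated preemergence, or seedlings at the 1- to 4-leaf stage (2 to 18 cm) in a peat, vermiculite and limestone mix treated postemergence, with test chemicals in a surfactant-containing non-phytotoxic solvent. Scored by eye at 13 to 15 d relative to controls, 0 (no effect) to 100 (complete control).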

[2] = system: oilseed rape (Brassica napus)
Method in brief: as §1

[3] = system: crabgrass, large (large crabgrass, Digitaria sanguinalis)
Method in brief: as §1

[4] = system: ragweed (common ragweed, Ambrosia elatior)
Method in brief: as §1

[5] = system: blackgrass (Alopecurus myosuroides)
Method in brief: as §1

[6] = system: nutsedge, yellow (yellow nutsedge, Cyperus esculentus)
Method in brief: as §1

[7] = system: lambsquarters (Chenopodium album)
Method in brief: as §1

[8] = system: Galium (catchweed bedstraw, Galium aparine)
Method in brief: as §1

corn (Zea mays) = system: corn (Zea mays)
Method in brief: as §1

[9] = system: velvetleaf (Abutilon theophrasti)
Method in brief: as §1

[10] = system: ryegrass, Italian (Italian ryegrass, Lolium multiflorum)
Method in brief: as §1

[11] = system: pigweed (Amaranthus retroflexus)
Method in brief: as §1

[12] = system: wheat (winter wheat, Triticum aestivum)
Method in brief: as §1

soybean (Glycine max) = system: soybean (Glycine max)
Method in brief: as §1

[13] = system: waterhemp (common waterhemp, Amaranthus rudis)
Method in brief: as §1

[14] = system: barnyardgrass (Echinochloa crus-galli)
Method in brief: as §1

Compound: Cc1ccc(C2CN(C)C(=O)C2C(=O)Nc2cccc(F)c2F)cc1F (centres unmarked) [Compound 464]
- Plant response rating, Morningglory ([1]; 31 g ai/ha): 10
- Plant response rating, Morningglory ([1]; 62 g ai/ha): 20
- Plant response rating, Morningglory ([1]; 125 g ai/ha): 20
- Plant response rating, Morningglory ([1]; 250 g ai/ha): 40
- Plant response rating, Oilseed Rape ([2]; 31 g ai/ha): 80
- Plant response rating, Oilseed Rape ([2]; 62 g ai/ha): 85
- Plant response rating, Oilseed Rape ([2]; 125 g ai/ha): 80
- Plant response rating, Oilseed Rape ([2]; 250 g ai/ha): 90
- Plant response rating, Crabgrass, Large ([3]; 31 g ai/ha): 95
- Plant response rating, Crabgrass, Large ([3]; 62 g ai/ha): 100
- Plant response rating, Crabgrass, Large ([3]; 125 g ai/ha): 100
- Plant response rating, Crabgrass, Large ([3]; 250 g ai/ha): 100
- Plant response rating, Ragweed ([4]; 31 g ai/ha): 70
- Plant response rating, Ragweed ([4]; 62 g ai/ha): 70
- Plant response rating, Ragweed ([4]; 125 g ai/ha): 75
- Plant response rating, Ragweed ([4]; 250 g ai/ha): 90
- Plant response rating, Blackgrass ([5]; 31 g ai/ha): 80
- Plant response rating, Blackgrass ([5]; 62 g ai/ha): 85
- Plant response rating, Blackgrass ([5]; 125 g ai/ha): 85
- Plant response rating, Blackgrass ([5]; 250 g ai/ha): 85
- Plant response rating, Nutsedge, Yellow ([6]; 31 g ai/ha): 0
- Plant response rating, Nutsedge, Yellow ([6]; 62 g ai/ha): 0
- Plant response rating, Nutsedge, Yellow ([6]; 125 g ai/ha): 0
- Plant response rating, Nutsedge, Yellow ([6]; 250 g ai/ha): 0
- Plant response rating, Lambsquarters ([7]; 31 g ai/ha): 45
- Plant response rating, Lambsquarters ([7]; 62 g ai/ha): 80
- Plant response rating, Lambsquarters ([7]; 125 g ai/ha): 80
- Plant response rating, Lambsquarters ([7]; 250 g ai/ha): 90
- Plant response rating, Galium ([8]; 31 g ai/ha): 90
- Plant response rating, Galium ([8]; 62 g ai/ha): 95
- Plant response rating, Galium ([8]; 125 g ai/ha): 95
- Plant response rating, Galium ([8]; 250 g ai/ha): 95
- Plant response rating, Corn (corn (Zea mays); 31 g ai/ha): 50
- Plant response rating, Corn (corn (Zea mays); 62 g ai/ha): 70
- Plant response rating, Corn (corn (Zea mays); 125 g ai/ha): 75
- Plant response rating, Corn (corn (Zea mays); 250 g ai/ha): 90
- Plant response rating, Velvetleaf ([9]; 62 g ai/ha): 30
- Plant response rating, Velvetleaf ([9]; 125 g ai/ha): 45
- Plant response rating, Velvetleaf ([9]; 250 g ai/ha): 60
- Plant response rating, Ryegrass, Italian ([10]; 62 g ai/ha): 55
- Plant response rating, Ryegrass, Italian ([10]; 125 g ai/ha): 70
- Plant response rating, Ryegrass, Italian ([10]; 250 g ai/ha): 85
- Plant response rating, Pigweed ([11]; 31 g ai/ha): 45
- Plant response rating, Pigweed ([11]; 62 g ai/ha): 45
- Plant response rating, Pigweed ([11]; 125 g ai/ha): 60
- Plant response rating, Pigweed ([11]; 250 g ai/ha): 70
- Plant response rating, Wheat ([12]; 62 g ai/ha): 50
- Plant response rating, Wheat ([12]; 125 g ai/ha): 70
- Plant response rating, Wheat ([12]; 250 g ai/ha): 90
- Plant response rating, Soybean (soybean (Glycine max); 62 g ai/ha): 0
- Plant response rating, Soybean (soybean (Glycine max); 125 g ai/ha): 0
- Plant response rating, Soybean (soybean (Glycine max); 250 g ai/ha): 0
- Plant response rating, Waterhemp ([13]; 62 g ai/ha): 75
- Plant response rating, Waterhemp ([13]; 125 g ai/ha): 80
- Plant response rating, Waterhemp ([13]; 250 g ai/ha): 95
- Plant response rating, Barnyardgrass ([14]; 31 g ai/ha): 90
- Plant response rating, Barnyardgrass ([14]; 62 g ai/ha): 95
- Plant response rating, Barnyardgrass ([14]; 125 g ai/ha): 95
- Plant response rating, Barnyardgrass ([14]; 250 g ai/ha): 98
